Experimental data published in ChEMBL document CHEMBL1201862, “PubChem BioAssay data set” (2004).
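The compound was tested at five concentrations on cells cultured in 96-well plates, with a 48-hour exposure period. Here, GI50 denotes the concentration required for 50% inhibition of growth.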 The source made the active and inactive calls. No stated cut-off is given here; in the data, active = GI50 up to about 1.1 µM and inactive = higher.

Assays:
Experiment in all cases: growth of human tumour cells (NCI), 48 h
SK-MEL-5 = tested on: SK-MEL-5
SR = tested on: SR
HT-29 = tested on: HT-29
UACC-62 = tested on: UACC-62
U-251 = tested on: U-251
KM12 = tested on: KM12
CCRF-CEM = tested on: CCRF-CEM
LOX IMVI = tested on: LOX IMVI
SK-OV-3 = tested on: SK-OV-3
786-0 = tested on: 786-0
MDA-N = tested on: MDA-N
ACHN = tested on: ACHN
NCI-H522 = tested on: NCI-H522
OVCAR-5 = tested on: OVCAR-5
M14 = tested on: M14
UACC-257 = tested on: UACC-257
BT-549 = tested on: BT-549
OVCAR-3 = tested on: OVCAR-3
NCI/ADR-RES = tested on: NCI/ADR-RES
SW-620 = tested on: SW-620
SK-MEL-2 = tested on: SK-MEL-2
MOLT-4 = tested on: MOLT-4
NCI-H460 = tested on: NCI-H460
SF-539 = tested on: SF-539
COLO 205 = tested on: COLO 205
SF-268 = tested on: SF-268
K562 = tested on: K562
CAKI-1 = tested on: CAKI-1
MDA-MB-435 = tested on: MDA-MB-435
Hs-578T = tested on: Hs-578T
UO-31 = tested on: UO-31
T47D = tested on: T47D
OVCAR-8 = tested on: OVCAR-8
HOP-92 = tested on: HOP-92
SN12C = tested on: SN12C
MDA-MB-231 = tested on: MDA-MB-231
OVCAR-4 = tested on: OVCAR-4
DU-145 = tested on: DU-145
SK-MEL-28 = tested on: SK-MEL-28
HOP-62 = tested on: HOP-62
HL-60 = tested on: HL-60
PC-3 = tested on: PC-3
Malme-3M = tested on: Malme-3M
IGROV-1 = tested on: IGROV-1
MCF7 = tested on: MCF7
NCI-H23 = tested on: NCI-H23
HCT-116 = tested on: HCT-116
TK-10 = tested on: TK-10
SNB-75 = tested on: SNB-75
RPMI-8226 = tested on: RPMI-8226
A549 = tested on: A549
HCT-15 = tested on: HCT-15
SNB-19 = tested on: SNB-19
A498 = tested on: A498
RXF 393 = tested on: RXF 393
NCI-H226 = tested on: NCI-H226
EKVX = tested on: EKVX
SF-295 = tested on: SF-295

Cc1ccc(S(=O)(=O)N2CCC(C(=O)O)(c3ccccc3)CC2)cc1
GI50 (SK-MEL-5): > 100 µM (inactive) | GI50 (SR): > 100 µM (inactive) | GI50 (HT-29): > 100 µM (inactive) | GI50 (UACC-62): > 100 µM (inactive) | GI50 (U-251): > 100 µM (inactive) | GI50 (KM12): > 100 µM (inactive) | GI50 (CCRF-CEM): > 100 µM (inactive) | GI50 (LOX IMVI): > 100 µM (inactive) | GI50 (SK-OV-3): > 100 µM (inactive) | GI50 (786-0): > 100 µM (inactive) | GI50 (MDA-N): > 100 µM (inactive) | GI50 (ACHN): > 100 µM (inactive) | GI50 (NCI-H522): > 100 µM (inactive) | GI50 (OVCAR-5): > 100 µM (inactive) | GI50 (M14): > 100 µM (inactive) | GI50 (UACC-257): > 100 µM (inactive) | GI50 (BT-549): > 100 µM (inactive) | GI50 (OVCAR-3): > 100 µM (inactive) | GI50 (NCI/ADR-RES): > 100 µM (inactive) | GI50 (SW-620): > 100 µM (inactive) | GI50 (SK-MEL-2): > 100 µM (inactive) | GI50 (MOLT-4): > 100 µM (inactive) | GI50 (NCI-H460): > 100 µM (inactive) | GI50 (SF-539): > 100 µM (inactive) | GI50 (COLO 205): > 100 µM (inactive) | GI50 (SF-268): > 100 µM (inactive) | GI50 (K562): > 100 µM (inactive) | GI50 (CAKI-1): > 100 µM (inactive) | GI50 (MDA-MB-435): > 100 µM (inactive) | GI50 (Hs-578T): > 100 µM (inactive) | GI50 (UO-31): > 100 µM (inactive) | GI50 (T47D): > 100 µM (inactive) | GI50 (OVCAR-8): > 100 µM (inactive) | GI50 (HOP-92): > 100 µM (inactive) | GI50 (SN12C): > 100 µM (inactive) | GI50 (MDA-MB-231): > 100 µM (inactive) | GI50 (OVCAR-4): > 100 µM (inactive) | GI50 (DU-145): > 100 µM (inactive) | GI50 (SK-MEL-28): > 100 µM (inactive) | GI50 (HOP-62): > 100 µM (inactive) | GI50 (HL-60): > 100 µM (inactive) | GI50 (PC-3): > 100 µM (inactive) | GI50 (Malme-3M): > 100 µM (inactive) | GI50 (IGROV-1): > 100 µM (inactive) | GI50 (MCF7): > 100 µM (inactive) | GI50 (NCI-H23): > 100 µM (inactive) | GI50 (HCT-116): > 100 µM (inactive) | GI50 (TK-10): > 100 µM (inactive) | GI50 (SNB-75): > 100 µM (inactive) | GI50 (RPMI-8226): > 100 µM (inactive) | GI50 (A549): > 100 µM (inactive) | GI50 (HCT-15): > 100 µM | GI50 (SNB-19): > 100 µM (inactive) | GI50 (A498): > 100 µM (inactive) | GI50 (RXF 393): > 100 µM (inactive) | GI50 (NCI-H226): > 100 µM (inactive) | GI50 (EKVX): > 100 µM (inactive) | GI50 (SF-295): > 100 µM (inactive)

CC(C(=O)c1ccccc1)C(c1ccccc1)N1CCOCC1 (stereo not given)
GI50 (SK-MEL-5): > 100 µM (inactive) | GI50 (SR): > 100 µM (inactive) | GI50 (HT-29): > 100 µM (inactive) | GI50 (UACC-62): > 100 µM (inactive) | GI50 (U-251): > 100 µM (inactive) | GI50 (KM12): > 100 µM (inactive) | GI50 (CCRF-CEM): 36.1 µM (inactive) | GI50 (LOX IMVI): > 100 µM (inactive) | GI50 (SK-OV-3): > 100 µM (inactive) | GI50 (786-0): > 100 µM (inactive) | GI50 (MDA-N): > 100 µM (inactive) | GI50 (ACHN): > 100 µM (inactive) | GI50 (NCI-H522): > 100 µM (inactive) | GI50 (OVCAR-5): > 100 µM (inactive) | GI50 (M14): > 100 µM (inactive) | GI50 (UACC-257): > 100 µM (inactive) | GI50 (BT-549): > 100 µM (inactive) | GI50 (OVCAR-3): > 100 µM (inactive) | GI50 (NCI/ADR-RES): > 100 µM (inactive) | GI50 (SW-620): > 100 µM (inactive) | GI50 (SK-MEL-2): > 100 µM (inactive) | GI50 (MOLT-4): 66.8 µM (inactive) | GI50 (NCI-H460): > 100 µM (inactive) | GI50 (SF-539): > 100 µM (inactive) | GI50 (COLO 205): > 100 µM (inactive) | GI50 (SF-268): > 100 µM (inactive) | GI50 (K562): > 100 µM (inactive) | GI50 (CAKI-1): > 100 µM (inactive) | GI50 (MDA-MB-435): > 100 µM (inactive) | GI50 (Hs-578T): > 100 µM (inactive) | GI50 (T47D): > 100 µM (inactive) | GI50 (OVCAR-8): > 100 µM (inactive) | GI50 (HOP-92): > 100 µM (inactive) | GI50 (SN12C): > 100 µM (inactive) | GI50 (MDA-MB-231): > 100 µM (inactive) | GI50 (OVCAR-4): > 100 µM (inactive) | GI50 (DU-145): > 100 µM (inactive) | GI50 (SK-MEL-28): > 100 µM (inactive) | GI50 (HOP-62): > 100 µM (inactive) | GI50 (HL-60): 49.1 µM (inactive) | GI50 (PC-3): > 100 µM (inactive) | GI50 (Malme-3M): > 100 µM (inactive) | GI50 (IGROV-1): > 100 µM (inactive) | GI50 (MCF7): > 100 µM (inactive) | GI50 (NCI-H23): > 100 µM (inactive) | GI50 (HCT-116): > 100 µM (inactive) | GI50 (TK-10): > 100 µM (inactive) | GI50 (SNB-75): > 100 µM (inactive) | GI50 (RPMI-8226): 54.3 µM (inactive) | GI50 (A549): > 100 µM (inactive) | GI50 (HCT-15): > 100 µM | GI50 (SNB-19): > 100 µM (inactive) | GI50 (A498): > 100 µM (inactive) | GI50 (RXF 393): > 100 µM (inactive) | GI50 (NCI-H226): > 100 µM (inactive) | GI50 (EKVX): > 100 µM (inactive) | GI50 (SF-295): > 100 µM (inactive)
